The values that follow come from patent publication US20240199676A1, “ANTIVIRAL COMPOUNDS AND METHODS OF MAKING AND USING THE SAME” (Gilead Sciences, Inc., priority 2022, published 2024).

SMILES strings stand for the structures.

A short description of data set [1]: GI S9 stability (Ex. Z), cyno intestinal S9. The data set is classed as in vitro ADME. Particulars: cynomolgus monkey, pooled intestinal S9 fractions; cyno intestinal S9, 1.0 mg/mL protein, 2 μM substrate, pH 7.4; read-out: GIS9 Cyno T½ (per Ex. Z). How it is done: Example Z: GI S9 stability data:
Stock solutions of test compounds in dimethyl sulfoxide (DMSO) having a final concentration of 10 mM were prepared and used in all experiments. Sekisui XenoTech (Kansas City, KS) provided pooled intestinal S9 fractions. All other chemicals were purchased from Sigma-Aldrich (St. Louis, MO) or VWR (West Chester, PA). Internal Standard/Quench (IS/Q) used to stop reactions was 100 nM labetalol in (by volume) methanol (10%) and acetonitrile (90%).
Stability in Intestinal S9 Fractions: Duplicate aliquots of test compound or positive control substrate were added to S9 stock diluted with phosphate buffered saline (137 mM NaCl, 2.7 mM KCl, 10 mM phosphate buffer), pH 7.4, to obtain a protein concentration of 1.0 mg/mL. The metabolic reactions were initiated by the addition of the substrates to the S9 reaction mixture to a final concentration of 2 μM. At 0, 10, 20, 30, 60 and 120 min, 25 μL aliquots of the reaction mixture were transferred to plates containing 225 μl of IS/Q solution. After quenching, the plates were centrifuged at 3000×g for 30 minutes. 150 μL aliquots of each supernatant were dried down then reconstituted with 300 μL water. Aliquots (10 μL) of the prepared samples were analyzed on a Thermo Q-Exactive mass spectrometer as described below.
Liquid Chromatography—Mass Spectrometry: Quantification of test compounds and control substrate was performed by analyte/internal standard peak area ratio (PAR) values measured on a Thermo Q-Exactive mass spectrometer coupled to a Dionex UltiMate 3000 HPLC with a Leap Technologies HTC PAL autosampler. The column used for analysis was a Waters Acquity BEH C18 (1.7 μm particle size, 2.1×50 mm). Mobile phase A consisted of 0.1% (v/v) formic acid in water. Mobile phase B consisted of 0.1% (v/v) formic acid in acetonitrile. Elution of analytes was achieved by a series of linear gradients varying the proportions of A and B. The mass spectrometer was calibrated on a weekly basis and mass tolerance of 5 ppm was used.
Metabolic stabilities in S9 fractions were determined by measuring the rates of disappearance of test compound and positive control substrate.
Data (% of substrate remaining) were plotted on a semi-log scale and fitted using an exponential decline model:
Where Ct—% of substrate remaining at time=t; C0—% of substrate remaining at time=0; t—time; T½—half-life The Half-life (T½) is determined by the following equation: […]
Assuming a first-order reaction, the slope (k) is extrapolated from the aforementioned plotted data.

The test system of data set [2] is Respiratory syncytial virus recombinant with luciferase (RSV-Luc5) in HEp-2 cells. The data set is described as follows: HEp-2 RSV-Luc5 384-well Assay (EC50 RSVFLUC Hep2-384, Ex. R). The following applies: human respiratory syncytial virus, HEp-2, 72 h, read-out: RSV Hep-2 FLuc EC50 (per Ex. R). The data set is classed as cell-based. The text has this: Example R. HEp-2 RSV-Luc5 384-well Assay (EC50 RSVFLUC Hep2-384)
HEp-2 cell line was purchased from ATCC (Manassas, VA Cat #CCL-23) and maintained in Dulbecco's […] (DMEM) (Corning, New York, NY, Cat #15-018CM) supplemented with 10% fetal bovine serum (FBS) (Hyclone, Logan, UT, Cat #SH30071-03) and 1× Penicillin-Streptonycin-L-Glutamine (Corning, New York, NY, Cat #30-009-CI). Cells were passaged 2 times per week to maintain sub-confluent densities and were used for experiments at passage 5-20. Respiratory syncytial virus recombinant with luciferase (RSV-Luc5) direct pelleted virus (≥1×107 TCID50/ml) was purchased from Microbiologics (Saint Cloud, MN). Viral replication was determined in HEp-2 cells in the following manner.
Compounds are prepared in 384-well polypropylene plates (Greiner, Monroe, NC, Cat#784201) with 8 compounds per plate in grouped replicates of 4 at 10 serially diluted concentrations (1:3).
HEp-2 cells were suspended in DMEM (supplemented with 10% FBS and 1× Penicillin-Streptomycin-L-Glutanine) and 60 uL of 4,000 cells per well were seeded into 384-well plates (Greiner, Monroe, NC, Cat #781080) using Biotek MultiFlo dispenser. […] Viral replication was then assessed by measuring luminescence signal using and Envision plate reader. […]

As to `CC(C)CC(=O)OC[C@@]1(C#N)O[C@@H](c2ccc3c(N)ncnn23)[C@H](O)[C@@H]1O` [Compound 3, ((2R,3S,4R,5S)-5-(4-aminopyrrolo[2,1-f][1,2,4]triazin-7-yl)-2-cyano-3,4-dihydroxytetrahydrofuran-2-yl)methyl 3-methylbutanoate], in data set [1], the half-life at 2 μM is 17 min.

On to `N#C[C@]1(COC(=O)C2CCCCC2)O[C@@H](c2ccc3c(N)ncnn23)[C@H](O)[C@@H]1O` [Compound 19, ((2R,3S,4R,5S)-5-(4-aminopyrrolo[2,1-f][1,2,4]triazin-7-yl)-2-cyano-3,4-dihydroxytetrahydrofuran-2-yl)methyl cyclohexanecarboxylate], for which the half-life at 2 μM in data set [1] turned out to be 2 min.

As for `CC1(C(=O)OC[C@@]2(C#N)O[C@@H](c3ccc4c(N)ncnn34)[C@H](O)[C@@H]2O)CC1` [Compound 15, ((2R,3S,4R,5S)-5-(4-aminopyrrolo[2,1-f][1,2,4]triazin-7-yl)-2-cyano-3,4-dihydroxytetrahydrofuran-2-yl)methyl 1-methylcyclopropane-1-carboxylate], the half-life at 2 μM in data set [1] stood at 123 min.

As to `CC(C)(C)C(=O)OC[C@@]1(C#N)O[C@@H](c2ccc3c(N)ncnn23)[C@H](O)[C@@H]1O` [Compound 10, ((2R,3S,4R,5S)-5-(4-aminopyrrolo[2,1-f][1,2,4]triazin-7-yl)-2-cyano-3,4-dihydroxytetrahydrofuran-2-yl)methyl pivalate], the half-life at 2 μM in data set [1] came to 123 min.

Regarding `CC(=O)OC[C@@]1(C#N)O[C@@H](c2ccc3c(N)ncnn23)[C@H](O)[C@@H]1O` [Compound 4, ((2R,3S,4R,5S)-5-(4-aminopyrrolo[2,1-f][1,2,4]triazin-7-yl)-2-cyano-3,4-dihydroxytetrahydrofuran-2-yl)methyl acetate], the half-life at 2 μM in data set [1] worked out at 9 min.

As to `N#C[C@]1(COC(=O)C2CC2)O[C@@H](c2ccc3c(N)ncnn23)[C@H](O)[C@@H]1O` [Compound 7, ((2R,3S,4R,5S)-5-(4-aminopyrrolo[2,1-f][1,2,4]triazin-7-yl)-2-cyano-3,4-dihydroxytetrahydrofuran-2-yl)methyl cyclopropanecarboxylate], the half-life at 2 μM in data set [1] amounted to 100 min.

As for `CC(C)C(=O)OC[C@@]1(C#N)O[C@@H](c2ccc3c(N)ncnn23)[C@H](O)[C@@H]1O` [Compound 1, ((2R,3S,4R,5S)-5-(4-aminopyrrolo[2,1-f][1,2,4]triazin-7-yl)-2-cyano-3,4-dihydroxytetrahydrofuran-2-yl)methyl isobutyrate], in data set [2], the EC50 amounted to 10.4 µM. Also, the half-life at 2 μM in data set [1] worked out at 25 min.

For `N#C[C@]1(COC(=O)c2ccccc2)O[C@@H](c2ccc3c(N)ncnn23)[C@H](O)[C@@H]1O` [Compound 2, ((2R,3S,4R,5S)-5-(4-aminopyrrolo[2,1-f][1,2,4]triazin-7-yl)-2-cyano-3,4-dihydroxytetrahydrofuran-2-yl)methyl benzoate], the half-life at 2 μM in data set [1] is 32 min.

Take `CC(C)[C@H](N)C(=O)OC[C@@]1(C#N)O[C@@H](c2ccc3c(N)ncnn23)[C@H](O)[C@@H]1O` [Compound 12, ((2R,3S,4R,5S)-5-(4-aminopyrrolo[2,1-f][1,2,4]triazin-7-yl)-2-cyano-3,4-dihydroxytetrahydrofuran-2-yl)methyl L-valinate]: in data set [1], the half-life at 2 μM was 2 min.

With `N#C[C@]1(COC(=O)CC2CCC2)O[C@@H](c2ccc3c(N)ncnn23)[C@H](O)[C@@H]1O` [Compound 16, ((2R,3S,4R,5S)-5-(4-aminopyrrolo[2,1-f][1,2,4]triazin-7-yl)-2-cyano-3,4-dihydroxytetrahydrofuran-2-yl)methyl 2-cyclobutylacetate], the half-life at 2 μM in data set [1] was determined as 3 min.

On to `CCC(=O)OC[C@@]1(C#N)O[C@@H](c2ccc3c(N)ncnn23)[C@H](O)[C@@H]1O` [Compound 5, ((2R,3S,4R,5S)-5-(4-aminopyrrolo[2,1-f][1,2,4]triazin-7-yl)-2-cyano-3,4-dihydroxytetrahydrofuran-2-yl)methyl propionate], for which, in data set [1], the half-life at 2 μM is 6 min.

For `Cc1ccc(C(=O)OC[C@@]2(C#N)O[C@@H](c3ccc4c(N)ncnn34)[C@H](O)[C@@H]2O)cc1` [Compound 14, ((2R,3S,4R,5S)-5-(4-aminopyrrolo[2,1-f][1,2,4]triazin-7-yl)-2-cyano-3,4-dihydroxytetrahydrofuran-2-yl)methyl 4-methylbenzoate], the half-life at 2 μM in data set [1] was found to be 22 min.

In the case of `N#C[C@]1(COC(=O)C2CCCC2)O[C@@H](c2ccc3c(N)ncnn23)[C@H](O)[C@@H]1O` [Compound 18, ((2R,3S,4R,5S)-5-(4-aminopyrrolo[2,1-f][1,2,4]triazin-7-yl)-2-cyano-3,4-dihydroxytetrahydrofuran-2-yl)methyl cyclopentanecarboxylate], in data set [1], the half-life at 2 μM was found to be 3 min.

In the case of `CCC(CC)C(=O)OC[C@@]1(C#N)O[C@@H](c2ccc3c(N)ncnn23)[C@H](O)[C@@H]1O` [Compound 9, ((2R,3S,4R,5S)-5-(4-aminopyrrolo[2,1-f][1,2,4]triazin-7-yl)-2-cyano-3,4-dihydroxytetrahydrofuran-2-yl)methyl 2-ethylbutanoate], the half-life at 2 μM in data set [1] amounted to 57 min.

Consider `N#C[C@]1(COC(=O)C2CCC2)O[C@@H](c2ccc3c(N)ncnn23)[C@H](O)[C@@H]1O` [Compound 8, ((2R,3S,4R,5S)-5-(4-aminopyrrolo[2,1-f][1,2,4]triazin-7-yl)-2-cyano-3,4-dihydroxytetrahydrofuran-2-yl)methyl cyclobutanecarboxylate], for which the half-life at 2 μM in data set [1] worked out at 4 min.

With `CCC(CC)C(=O)Nc1ncnn2c([C@@H]3O[C@](C#N)(COC(=O)C(CC)CC)[C@@H](O)[C@H]3O)ccc12` [Compound 11, ((2R,3S,4R,5S)-2-cyano-5-(4-(2-ethylbutanamido)pyrrolo[2,1-f][1,2,4]triazin-7-yl)-3,4-dihydroxytetrahydrofuran-2-yl)methyl 2-ethylbutanoate], the half-life at 2 μM in data set [1] is 19 min.

With `CC(C)(C)CC(=O)OC[C@@]1(C#N)O[C@@H](c2ccc3c(N)ncnn23)[C@H](O)[C@@H]1O` [Compound 13, ((2R,3S,4R,5S)-5-(4-aminopyrrolo[2,1-f][1,2,4]triazin-7-yl)-2-cyano-3,4-dihydroxytetrahydrofuran-2-yl)methyl 3,3-dimethylbutanoate], the half-life at 2 μM in data set [1] was 408 min.

For `CCCC(=O)OC[C@@]1(C#N)O[C@@H](c2ccc3c(N)ncnn23)[C@H](O)[C@@H]1O` [Compound 6, ((2R,3S,4R,5S)-5-(4-aminopyrrolo[2,1-f][1,2,4]triazin-7-yl)-2-cyano-3,4-dihydroxytetrahydrofuran-2-yl)methyl butyrate], the half-life at 2 μM in data set [1] was determined as 8 min.

The EC50 is the concentration that produces a half-maximal response.
